{
  "source": "ChEMBL document CHEMBL1148644",
  "about": "“Human PEPT1 pharmacophore distinguishes between dipeptide transport and binding” (J Med Chem, 2006)",
  "key": {"[1]": {"molecular_target": "T1, Solute carrier family 15 member 1 (Homo sapiens, UniProt P46059)", "T1 sequence (P46059 whole entry)": "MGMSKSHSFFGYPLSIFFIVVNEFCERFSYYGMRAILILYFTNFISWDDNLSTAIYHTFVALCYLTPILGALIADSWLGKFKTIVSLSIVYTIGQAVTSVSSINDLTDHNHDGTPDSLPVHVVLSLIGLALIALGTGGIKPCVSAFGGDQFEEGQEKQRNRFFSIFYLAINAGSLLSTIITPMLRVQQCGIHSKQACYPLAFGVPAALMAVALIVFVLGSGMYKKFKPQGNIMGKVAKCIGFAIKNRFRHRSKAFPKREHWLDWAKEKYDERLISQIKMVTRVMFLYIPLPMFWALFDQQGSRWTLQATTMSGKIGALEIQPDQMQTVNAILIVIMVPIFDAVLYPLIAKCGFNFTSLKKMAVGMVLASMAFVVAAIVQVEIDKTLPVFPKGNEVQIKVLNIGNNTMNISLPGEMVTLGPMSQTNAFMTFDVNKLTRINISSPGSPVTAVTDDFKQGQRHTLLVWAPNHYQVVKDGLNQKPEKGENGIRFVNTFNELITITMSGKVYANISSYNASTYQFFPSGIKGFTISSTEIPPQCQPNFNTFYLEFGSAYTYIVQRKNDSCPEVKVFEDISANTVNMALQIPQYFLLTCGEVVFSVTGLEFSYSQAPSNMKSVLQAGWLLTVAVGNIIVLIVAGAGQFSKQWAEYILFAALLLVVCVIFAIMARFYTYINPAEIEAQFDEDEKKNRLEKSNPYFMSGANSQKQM", "experiment": "Binding affinity to human PEPT1 assessed as inhibition of [14C]Gly-Sar uptake in MDCK cells", "format": "functional, cell-based", "settings": "read-out: IC50"}, "[2]": {"molecular_target": "T1, Solute carrier family 15 member 1", "experiment": "Activation of human PEPT1 expressed in MDCK cells", "format": "functional, cell-based"}},
  "note": "Where a SMILES comes first, the peptide text is derived from it.",
  "data": [
    {"smiles": "CC(C)[C@H](N)C(=O)N[C@@H](Cc1c[nH]c2ccccc12)C(=O)O", "note": "[VALYLTRYPTOPHAN] (H-Val-Trp-OH)", "values": [
      {"measurement": "IC50", "setting": "[1]", "value": 100, "unit": "µM"},
      {"measurement": "EC50", "setting": "[2]", "value": 40, "unit": "µM"}
    ]}
  ]
}
